Experimental data as given in patent US20170150719A1, “FUNGICIDAL PYRAZOLES AND THEIR MIXTURES” (E I DU PONT DE NEMOURS AND COMPANY, priority 2010, published 2017).

What was measured:
Septoria nodorum = assay: Test E: Septoria glume blotch, preventive spray on wheat seedlings, visual disease rating; details: Parastagonospora nodorum, in Triticum aestivum, read-out: Test E rating (disease control), Septoria glume blotch; 100 = 100% disease control, 0 = no disease control relative to the controls
Description: (§2) General protocol for preparing test suspensions for Tests A-I: the test compounds were first dissolved in acetone in an amount equal to 3% of the final volume and then suspended at the desired concentration (in ppm) in acetone and purified water (50/50 mix by volume) containing 250 ppm of the surfactant Trem® 014 (polyhydric alcohol esters). The resulting test suspensions were then used in Tests A-I. Each test was conducted in triplicate, and the results were averaged. Spraying a 200 ppm test suspension to the point of run-off on the test plants was the equivalent of a rate of about 800 g/ha. Unless otherwise indicated, the rating values indicate a 200 ppm test suspension was used. (An asterisk “*” next to the rating value indicates a 40 ppm test suspension was used.)
The test suspension was sprayed to the point of run-off on wheat seedlings. The following day the seedlings were inoculated with a spore suspension of Septoria nodorum (the causal agent of Septoria glume blotch) and incubated in a saturated atmosphere at 24° C. for 48 h, and then moved to a growth chamber at 20° C. for 9 days, after which time visual disease ratings were made.

[1] = test system: Puccinia recondita f. sp. tritici; assay: Test G: wheat leaf rust, spray after inoculation (curative) on wheat seedlings, visual disease rating; type: in vivo; details: sprayed after inoculation, 100 = 100% disease control, 0 = no disease control
Text: (§1) A hyphen (-) indicates no test results.

Botrytis cinerea = assay: Test A: tomato Botrytis, preventive spray on tomato seedlings, visual disease rating; details: Botrytis cinerea, in Solanum lycopersicum, read-out: Test A rating (disease control), tomato Botrytis; 100 = 100% disease control, 0 = no disease control relative to the controls
Septoria tritici [2] = assay: Test F: wheat leaf blotch, preventive spray on wheat seedlings, visual disease rating; type: in vivo; details: Zymoseptoria tritici, 100 = 100% disease control, 0 = no disease control relative to the controls
Text: as §1

[3] = test system: Puccinia recondita f. sp. tritici; assay: Test H: wheat leaf rust, preventive spray on wheat seedlings, visual disease rating; details: read-out: Test H rating (disease control), wheat leaf rust, sprayed the day before inoculation; 100 = 100% disease control, 0 = no disease control
[4] = test system: Blumeria graminis f. sp. tritici; assay: Test K (K1-K5): wheat powdery mildew, Compound 81 alone and in mixtures, observed and Colby expected control; type: in vivo; details: for Test K4 Obsd, disease control rating / Test K5 Obsd, disease control rating: wheat powdery mildew
Phytophthora infestans = assay: whole plant or invertebrate; type: in vivo; details: Phytophthora infestans, in Solanum lycopersicum, read-out: Test C rating (disease control)
Septoria tritici [5] = assay: Test M (M1-M5): wheat leaf blotch, Compound 81 alone and in mixtures, observed and Colby expected control; type: in vivo
[6] = test system: Blumeria graminis f. sp. tritici; assay: Test I: wheat powdery mildew, preventive spray on wheat seedlings, visual disease rating; details: Blumeria graminis, in Triticum aestivum, read-out: Test I rating (disease control), wheat powdery mildew; 100 = 100% disease control, 0 = no disease control relative to the controls
Description: as §2
The test suspension was sprayed to the point of run-off on wheat seedlings. The following day the seedlings were inoculated with a spore dust of Blumeria graminis f. sp. tritici (also known as Erysiphe graminis f. sp. tritici, the causal agent of wheat powdery mildew) and incubated in a growth chamber at 20° C. for 8 days, after which time visual disease ratings were made.

[7] = test system: Puccinia recondita f sp. tritici; assay: Test L (L1-L5): wheat leaf rust, Compound 81 alone and in mixtures, observed and Colby expected control; type: in vivo; details: for Test L4 Obsd, disease control rating / Test L5 Obsd, disease control rating: wheat leaf rust
Alternaria solani = assay: Test B: tomato early blight, preventive spray on tomato seedlings, visual disease rating; details: Alternaria solani, in Solanum lycopersicum, read-out: Test B rating (disease control)
Description: as §2
The test suspension was sprayed to the point of run-off on tomato seedlings. The following day the seedlings were inoculated with a spore suspension of Alternaria solani (the causal agent of tomato early blight) and incubated in a saturated atmosphere at 27° C. for 48 h, and then moved to a growth chamber at 20° C. for 5 days, after which time visual disease ratings were made.

Compound: Cc1nn(C)c(Nc2c(F)cc(Cl)cc2F)c1-c1ccc(F)cc1Cl [Compound 81, N-(4-chloro-2,6-difluorophenyl)-4-(2-chloro-4-fluorophenyl)-1,3-dimethyl-1H-pyrazole-5-amine]
- pest or weed control at 200 µg/mL (Septoria nodorum): 90%
- pest or weed control at 200 µg/mL [1]: 99%
- pest or weed control at 200 µg/mL (Botrytis cinerea): 100%
- pest or weed control at 200 µg/mL (Septoria tritici [2]): 100%
- pest or weed control at 200 µg/mL [3]: 100%
- Test K1 Obsd ([4]; Compound 81 1 ppm alone): 0%
- Test K2 Obsd ([4]; Compound 81 1 ppm alone): 91%
- Test K3 Obsd ([4]; Compound 81 1 ppm alone): 0%
- Test K1 Obsd ([4]; Compound 81 2 ppm alone): 87%
- Test K2 Obsd ([4]; Compound 81 2 ppm alone): 91%
- Test K3 Obsd ([4]; Compound 81 2 ppm alone): 0%
- Test K1 Obsd ([4]; Compound 81 5 ppm alone): 99%
- Test K2 Obsd ([4]; Compound 81 5 ppm alone): 91%
- Test K3 Obsd ([4]; Compound 81 5 ppm alone): 90%
- Test K1 Obsd ([4]; Compound 81 10 ppm alone): 100%
- Test K2 Obsd ([4]; Compound 81 10 ppm alone): 100%
- Test K3 Obsd ([4]; Compound 81 10 ppm alone): 99%
- Test K4 Obsd, disease control rating ([4]; Compound 81 1 ppm alone): 0%
- Test K5 Obsd, disease control rating ([4]; Compound 81 1 ppm alone): 0%
- Test K4 Obsd, disease control rating ([4]; Compound 81 2 ppm alone): 0%
- Test K5 Obsd, disease control rating ([4]; Compound 81 2 ppm alone): 0%
- Test K4 Obsd, disease control rating ([4]; Compound 81 5 ppm alone): 0%
- Test K5 Obsd, disease control rating ([4]; Compound 81 5 ppm alone): 0%
- Test K5 Obsd, disease control rating ([4]; Compound 81 10 ppm alone): 100%
- pest or weed control at 200 µg/mL (Phytophthora infestans): 0%
- Test M1 Obsd, disease control rating (Septoria tritici [5]; Compound 81 0.01 ppm alone): 0%
- Test M2 Obsd, disease control rating (Septoria tritici [5]; Compound 81 0.01 ppm alone): 0%
- Test M1 Obsd, disease control rating (Septoria tritici [5]; Compound 81 0.1 ppm alone): 0%
- Test M2 Obsd, disease control rating (Septoria tritici [5]; Compound 81 0.1 ppm alone): 0%
- Test M1 Obsd, disease control rating (Septoria tritici [5]; Compound 81 1 ppm alone): 86%
- Test M2 Obsd, disease control rating (Septoria tritici [5]; Compound 81 1 ppm alone): 95%
- Test M1 Obsd, disease control rating (Septoria tritici [5]; Compound 81 10 ppm alone): 100%
- Test M2 Obsd, disease control rating (Septoria tritici [5]; Compound 81 10 ppm alone): 100%
- Test M3 Obsd disease control rating (Septoria tritici [5]; Compound 81 alone 0.01 ppm): 0%
- Test M4 Obsd disease control rating (Septoria tritici [5]; Compound 81 alone 0.01 ppm): 0%
- Test M5 Obsd disease control rating (Septoria tritici [5]; Compound 81 alone 0.01 ppm): 0%
- Test M3 Obsd disease control rating (Septoria tritici [5]; Compound 81 alone 0.1 ppm): 0%
- Test M4 Obsd disease control rating (Septoria tritici [5]; Compound 81 alone 0.1 ppm): 23%
- Test M5 Obsd disease control rating (Septoria tritici [5]; Compound 81 alone 0.1 ppm): 3%
- Test M3 Obsd disease control rating (Septoria tritici [5]; Compound 81 alone 1 ppm): 52%
- Test M4 Obsd disease control rating (Septoria tritici [5]; Compound 81 alone 1 ppm): 66%
- Test M5 Obsd disease control rating (Septoria tritici [5]; Compound 81 alone 1 ppm): 90%
- Test M3 Obsd disease control rating (Septoria tritici [5]; Compound 81 alone 10 ppm): 100%
- Test M4 Obsd disease control rating (Septoria tritici [5]; Compound 81 alone 10 ppm): 100%
- Test M5 Obsd disease control rating (Septoria tritici [5]; Compound 81 alone 10 ppm): 100%
- pest or weed control at 200 µg/mL [6]: 100%
- Test L1 Obsd ([7]; Compound 81 1 ppm alone): 88%
- Test L2 Obsd ([7]; Compound 81 1 ppm alone): 9%
- Test L3 Obsd ([7]; Compound 81 1 ppm alone): 9%
- Test L1 Obsd ([7]; Compound 81 2 ppm alone): 68%
- Test L2 Obsd ([7]; Compound 81 2 ppm alone): 27%
- Test L3 Obsd ([7]; Compound 81 2 ppm alone): 9%
- Test L1 Obsd ([7]; Compound 81 5 ppm alone): 91%
- Test L2 Obsd ([7]; Compound 81 5 ppm alone): 74%
- Test L3 Obsd ([7]; Compound 81 5 ppm alone): 41%
- Test L1 Obsd ([7]; Compound 81 10 ppm alone): 98%
- Test L2 Obsd ([7]; Compound 81 10 ppm alone): 91%
- Test L3 Obsd ([7]; Compound 81 10 ppm alone): 88%
- Test L4 Obsd, disease control rating ([7]; Compound 81 1 ppm alone): 0%
- Test L5 Obsd, disease control rating ([7]; Compound 81 1 ppm alone): 18%
- Test L4 Obsd, disease control rating ([7]; Compound 81 2 ppm alone): 27%
- Test L5 Obsd, disease control rating ([7]; Compound 81 2 ppm alone): 27%
- Test L4 Obsd, disease control rating ([7]; Compound 81 5 ppm alone): 68%
- Test L5 Obsd, disease control rating ([7]; Compound 81 5 ppm alone): 55%
- Test L4 Obsd, disease control rating ([7]; Compound 81 10 ppm alone): 88%
- Test L5 Obsd, disease control rating ([7]; Compound 81 10 ppm alone): 82%
- pest or weed control at 200 µg/mL (Alternaria solani): 99%
